{"source": "patent US12209096B2", "about": "“Compounds and compositions for inducing chondrogenesis” (NOVARTIS AG, priority 2017, dated 2025)", "tested_on": "NHACs", "experiment": "calcium flux assay", "format": "cell-based, human", "conditions": "for Emax: read-out: (A) % Efficacy", "summary_of_the_method": "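FLIPR fluorescence (ex 470–495 nm, em 515–575 nm) was read before and after compound dispense at the indicated dose. Chondrocytes (NHACs), 2000 cells/well, had been dye-loaded 24 h after plating with Calcium 5 in HBSS/HEPES plus 5 mM probenecid, 1 h, room temperature.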", "note": "Read-outs that look alike come from different tables or passages of the source."}
{"molecule": "Cc1cc([C@H]2[C@H](C(=O)Nc3ccc(Cl)c(Cl)c3)[C@H]3O[C@@H]2C[C@H]3F)ccn1", "note": "(single isomer, unassigned) [Example 95]", "values": [{"measurement": "EC50", "setting": "Homo sapiens", "result": 11, "unit": "µM"}, {"measurement": "Emax", "setting": "Homo sapiens", "result": 113, "unit": "%"}]}
{"molecule": "CN[C@@H]1C[C@H]2O[C@@H]1[C@H](c1ccnc(C)c1)[C@H]2C(=O)Nc1ccc(Cl)c(Cl)c1", "note": "[Example 167, (1R,2R,3S,4R,5R)—N-(3,4-dichlorophenyl)-5-(methylamino)-3-(2-methylpyridin-4-yl)-7-oxabicyclo[2.2.1]heptane-2-carboxamide]", "values": [{"measurement": "EC50", "setting": "Homo sapiens", "result": 6.9, "unit": "µM"}, {"measurement": "Emax", "setting": "Homo sapiens", "result": 83, "unit": "%"}]}
{"molecule": "O=C(Nc1ccc(Cl)c(Cl)c1)[C@H]1[C@@H](c2ccnc(F)c2)[C@H]2O[C@@H]1C[C@@H]2O", "note": "(racemic) [Example 52, rac-(1R,2S,3S,4R,5S)—N-(3,4-dichlorophenyl)-3-(2-fluoropyridin-4-yl)-5-hydroxy-7-oxabicyclo[2.2.1]heptane-2-carboxamide]", "values": [{"measurement": "EC50", "setting": "Homo sapiens", "result": "> 50", "unit": "µM"}, {"measurement": "Emax", "setting": "Homo sapiens", "result": 4, "unit": "%"}]}
{"molecule": "CN[C@@H]1C[C@H]2O[C@@H]1[C@H](c1ccnc(F)c1)[C@H]2C(=O)Nc1ccc(Cl)c(Cl)c1", "note": "[Example 171, (1R,2R,3S,4R,5R)—N-(3,4-dichlorophenyl)-3-(2-fluoropyridin-4-yl)-5-(methylamino)-7-oxabicyclo[2.2.1]heptane-2-carboxamide]", "values": [{"measurement": "EC50", "setting": "Homo sapiens", "result": 24, "unit": "µM"}, {"measurement": "Emax", "setting": "Homo sapiens", "result": 237, "unit": "%"}]}
{"molecule": "(1R,2S,3S,4R,5S)-N-(5,6-dichloropyridin-3-yl)-5-hydroxy-3-(pyridin-4-yl)-7-oxabicyclo[2.2.1]heptane-2-carboxamide [Example 10]", "values": [{"measurement": "(A) % Efficacy", "result": 0, "unit": "%"}, {"measurement": "EC50", "result": "> 50", "unit": "µM"}]}
{"molecule": "O=C(Nc1cnc(Cl)c(Cl)c1)[C@@H]1[C@@H]2O[C@@H]([C@H]3C[C@H]32)[C@@H]1c1ccncc1", "note": "(single isomer, unassigned) [Example 43b]", "values": [{"measurement": "EC50", "setting": "Homo sapiens", "result": "> 50", "unit": "µM"}, {"measurement": "Emax", "setting": "Homo sapiens", "result": 3, "unit": "%"}]}
{"molecule": "COc1ccc(NC(=O)[C@@H]2[C@@H]3O[C@@H]([C@H]4C[C@H]43)[C@@H]2c2ccc(C)nc2)cn1", "note": "[Example 31, (1S,2S,4R,5R,6S,7S)-N-(6-methoxypyridin-3-yl)-7-(6-methylpyridin-3-yl)-8-oxatricyclo[3.2.1.0^2,4]octane-6-carboxamide]", "values": [{"measurement": "EC50", "setting": "Homo sapiens", "result": "> 50", "unit": "µM"}, {"measurement": "Emax", "setting": "Homo sapiens", "result": 0, "unit": "%"}]}
{"molecule": "O=C(Nc1cnc(Cl)c(Cl)c1)[C@@H]1[C@@H]2O[C@@H]([C@H]3C[C@H]32)[C@@H]1c1ccncc1", "note": "(racemic) [Example 43, rac-(1S,2S,4R,5R,6S,7S)—N-(5,6-dichloropyridin-3-yl)-7-(pyridin-4-yl)-8-oxatricyclo[3.2.1.0^2,4]octane-6-carboxamide]", "values": [{"measurement": "EC50", "setting": "Homo sapiens", "result": "> 50", "unit": "µM"}, {"measurement": "Emax", "setting": "Homo sapiens", "result": 168, "unit": "%"}]}
{"molecule": "O=C(Nc1cccc(C(F)(F)F)c1)[C@H]1[C@@H]2O[C@@H](C[C@H]2O)[C@@H]1c1ccncc1", "note": "[Example 89, (1S,2R,3S,4S,6R)-6-hydroxy-3-(pyridin-4-yl)-N-(3-(trifluoromethyl)phenyl)-7-oxabicyclo[2.2.1]heptane-2-carboxamide]", "values": [{"measurement": "EC50", "setting": "Homo sapiens", "result": "> 50", "unit": "µM"}, {"measurement": "Emax", "setting": "Homo sapiens", "result": 0, "unit": "%"}]}
{"molecule": "Cc1cc([C@H]2[C@H]3O[C@H](C[C@@H]3F)[C@@H]2C(=O)Nc2cnc(Cl)c(Cl)c2)ccn1", "note": "[Example 109, (1R,2R,3S,4R,5S)—N-(5,6-dichloropyridin-3-yl)-5-fluoro-3-(2-methylpyridin-4-yl)-7-oxabicyclo[2.2.1]heptane-2-carboxamide]", "values": [{"measurement": "EC50", "setting": "Homo sapiens", "result": 28, "unit": "µM"}, {"measurement": "Emax", "setting": "Homo sapiens", "result": 164, "unit": "%"}]}
{"molecule": "Cc1cc([C@H]2[C@H]3O[C@H](C[C@H]3F)[C@@H]2C(=O)Nc2ccc(Cl)c(Cl)c2)ccn1", "note": "(single isomer, unassigned) [Example 92]", "values": [{"measurement": "EC50", "setting": "Homo sapiens", "result": "> 50", "unit": "µM"}, {"measurement": "Emax", "setting": "Homo sapiens", "result": 57, "unit": "%"}]}
{"molecule": "COc1ccc(NC(=O)[C@H]2[C@@H]3O[C@@H]([C@H]4C[C@H]43)[C@@H]2c2ccncc2)cn1", "note": "[Example 125, (1S,2S,4R,5R,6R,7S)—N-(6-methoxypyridin-3-yl)-7-(pyridin-4-yl)-8-oxatricyclo[3.2.1.0^2,4]octane-6-carboxamide]", "values": [{"measurement": "EC50", "setting": "Homo sapiens", "result": 17, "unit": "µM"}, {"measurement": "Emax", "setting": "Homo sapiens", "result": 162, "unit": "%"}]}
{"molecule": "COc1cc([C@H]2[C@H]3O[C@H](C[C@@H]3F)[C@H]2C(=O)Nc2ccc(Cl)c(Cl)c2)ccn1", "note": "[Example 19, (1R,2S,3S,4R,5S)-N-(3,4-dichlorophenyl)-5-fluoro-3-(2-methoxypyridin-4-yl)-7-oxabicyclo[2.2.1]heptane-2-carboxamide]", "values": [{"measurement": "EC50", "setting": "Homo sapiens", "result": 25, "unit": "µM"}, {"measurement": "Emax", "setting": "Homo sapiens", "result": 258, "unit": "%"}]}
{"molecule": "COc1cc([C@H]2[C@H]3O[C@H](C[C@H]3F)[C@H]2C(=O)Nc2ccc(Cl)c(Cl)c2)ccn1", "note": "[Example 65, (1R,2S,3S,4R,5R)—N-(3,4-dichlorophenyl)-5-fluoro-3-(2-methoxypyridin-4-yl)-7-oxabicyclo[2.2.1]heptane-2-carboxamide]", "values": [{"measurement": "EC50", "setting": "Homo sapiens", "result": 18, "unit": "µM"}, {"measurement": "Emax", "setting": "Homo sapiens", "result": 169, "unit": "%"}]}
{"molecule": "O=C(Nc1ccc(Cl)c(Cl)c1)[C@H]1[C@@H](c2cnc(C(F)(F)F)nc2)[C@H]2O[C@@H]1C[C@@H]2O", "note": "[Example 62, (1R,2S,3S,4R,5S)—N-(3,4-dichlorophenyl)-5-hydroxy-3-(2-(trifluoromethyl)pyrimidin-5-yl)-7-oxabicyclo[2.2.1]heptane-2-carboxamide]", "values": [{"measurement": "EC50", "setting": "Homo sapiens", "result": 8.2, "unit": "µM"}, {"measurement": "Emax", "setting": "Homo sapiens", "result": 61, "unit": "%"}]}
{"molecule": "Cc1cc([C@H]2[C@H]3O[C@H]([C@H](O)[C@@H]3O)[C@@H]2C(=O)Nc2ccnc(C(F)(F)F)c2)ccn1", "note": "[Example 161, (1S,2R,3S,4R,5S,6R)-5,6-dihydroxy-3-(2-methylpyridin-4-yl)-N-(2-(trifluoromethyl)pyridin-4-yl)-7-oxabicyclo[2.2.1]heptane-2-carboxamide]", "values": [{"measurement": "EC50", "setting": "Homo sapiens", "result": "> 50", "unit": "µM"}, {"measurement": "Emax", "setting": "Homo sapiens", "result": 29, "unit": "%"}]}
{"molecule": "Cc1cc([C@H]2[C@H]3O[C@H](C[C@@H]3O)[C@H]2C(=O)Nc2cc(Cl)c(Cl)cn2)ccn1", "note": "[Example 4, (1R,2S,3S,4R,5S)-N-(4,5-dichloropyridin-2-yl)-5-hydroxy-3-(2-methylpyridin-4-yl)-7-oxabicyclo[2.2.1]heptane-2-carboxamide]", "values": [{"measurement": "EC50", "setting": "Homo sapiens", "result": "> 50", "unit": "µM"}, {"measurement": "Emax", "setting": "Homo sapiens", "result": 28, "unit": "%"}]}
{"molecule": "CN[C@@H]1C[C@H]2O[C@@H]1[C@H](c1ccnc(F)c1)[C@H]2C(=O)Nc1cnc(Cl)c(Cl)c1", "note": "[Example 174, (1R,2R,3S,4R,5R)—N-(5,6-dichloropyridin-3-yl)-3-(2-fluoropyridin-4-yl)-5-(methylamino)-7-oxabicyclo[2.2.1]heptane-2-carboxamide]", "values": [{"measurement": "EC50", "setting": "Homo sapiens", "result": "> 50", "unit": "µM"}, {"measurement": "Emax", "setting": "Homo sapiens", "result": 37, "unit": "%"}]}
{"molecule": "Cc1cc([C@H]2[C@H]3O[C@H]([C@@H]4C[C@@H]43)[C@@H]2C(=O)Nc2ccc(Cl)c(C#N)c2)ccn1", "note": "[Example 66, (1S,2S,4R,5R,6R,7S)—N-(4-chloro-3-cyanophenyl)-7-(2-methylpyridin-4-yl)-8-oxatricyclo[3.2.1.0^2,4]octane-6-carboxamide]", "values": [{"measurement": "EC50", "setting": "Homo sapiens", "result": 20, "unit": "µM"}, {"measurement": "Emax", "setting": "Homo sapiens", "result": 179, "unit": "%"}]}
{"molecule": "COc1cc([C@H]2[C@H]3O[C@H](C[C@@H]3O)[C@@H]2C(=O)Nc2ccc(Cl)c(Cl)c2)ccn1", "note": "(racemic) [Example 139, rac-(1R,2R,3S,4R,5S)—N-(3,4-dichlorophenyl)-5-hydroxy-3-(2-methoxypyridin-4-yl)-7-oxabicyclo[2.2.1]heptane-2-carboxamide]", "values": [{"measurement": "EC50", "setting": "Homo sapiens", "result": 21, "unit": "µM"}, {"measurement": "Emax", "setting": "Homo sapiens", "result": 223, "unit": "%"}]}
{"molecule": "COc1ccc(NC(=O)[C@@H]2[C@@H]3O[C@@H]([C@H]4C[C@H]43)[C@@H]2c2ccnc(F)c2F)cn1", "note": "[Example 34, (1S,2S,4R,5R,6S,7S)-7-(2,3-difluoropyridin-4-yl)-N-(6-methoxypyridin-3-yl)-8-oxatricyclo[3.2.1.0^2,4]octane-6-carboxamide]", "values": [{"measurement": "EC50", "setting": "Homo sapiens", "result": "> 50", "unit": "µM"}, {"measurement": "Emax", "setting": "Homo sapiens", "result": 3, "unit": "%"}]}
{"molecule": "Cc1cc([C@H]2[C@H]3O[C@H](C[C@H]3F)[C@@H]2C(=O)Nc2ncc(C)s2)ccn1", "note": "[Example 102, (1R,2R,3S,4R,5R)-5-fluoro-3-(2-methylpyridin-4-yl)-N-(5-methylthiazol-2-yl)-7-oxabicyclo[2.2.1]heptane-2-carboxamide]", "values": [{"measurement": "EC50", "setting": "Homo sapiens", "result": 2.1, "unit": "µM"}, {"measurement": "Emax", "setting": "Homo sapiens", "result": 84, "unit": "%"}]}
